Results: PubChem BioAssay (NCI)
Where “and” joins values, the source holds several entries; their conditions need not be identical. Identical values can stand only once.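 Values below derive from 48-hour exposures of cells grown in 96-well plates, with endpoints linearly interpolated between the two concentrations bracketing the appropriate inhibition level. The concentration for 50% growth inhibition is given as GI50. The concentration for full growth arrest is given as TGI.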 *1 amine or outer side, *2 acyl side, *3 side chain or, on linkers, in order; H or OH if unused. Where a SMILES comes first, the peptide text is derived from it. Bridges are numbered along the chain shown (N, C = ends). Roman numbers before positions name the chains, in order. [ ]: non-standard residue; d: D form. Actinocin(9to1) = Cc1c2oc3c(C)ccc(C(=O)[*:1])c3nc-2c(C(=O)[*:2])c(N)c1=O; NMeV = CN[CH](C(=O)O)C(C)C; Sar = CNCC(=O)O

How the values were obtained:
Experiment in all cases: growth of human tumour cells (NCI), 48 h
CCRF-CEM leukemia = system: CCRF-CEM leukemia
UACC-62 melanoma = system: UACC-62 melanoma
MDA-N = system: MDA-N
M14 melanoma = system: M14 melanoma
HT29 colon = system: HT29 colon
UACC-257 melanoma = system: UACC-257 melanoma
A549 NSCLC = system: A549 NSCLC
RPMI-8226 leukemia = system: RPMI-8226 leukemia
OVCAR-3 ovarian = system: OVCAR-3 ovarian
EKVX NSCLC = system: EKVX NSCLC

Compound | TGI (CCRF-CEM leukemia) | TGI (UACC-62 melanoma) | TGI (MDA-N) | GI50 (M14 melanoma) | TGI (M14 melanoma) | TGI (HT29 colon) | TGI (UACC-257 melanoma) | TGI (A549 NSCLC) | TGI (RPMI-8226 leukemia) | TGI (OVCAR-3 ovarian) | TGI (EKVX NSCLC) | GI50 (CCRF-CEM leukemia) | GI50 (MDA-N) | GI50 (UACC-257 melanoma) | GI50 (EKVX NSCLC) | GI50 (RPMI-8226 leukemia) | GI50 (UACC-62 melanoma) | GI50 (HT29 colon) | GI50 (A549 NSCLC) | GI50 (OVCAR-3 ovarian)
Cc1c2oc3c(C)ccc(C(=O)NC4C(=O)NC(Cc5ccccc5)C(=O)N5CCCC5C(=O)N(C)CC(=O)N(C)C(C(C)C)C(=O)OC4C)c3nc-2c(C(=O)NC2C(=O)NC(Cc3ccccc3)C(=O)N3CCCC3C(=O)N(C)CC(=O)N(C)C(C(C)C)C(=O)OC2C)c(N)c1=O (stereo not given) (I: TFP[Sar][NMeV] / II: TFP[Sar][NMeV]; ester I:1-I:C, II:1-II:C; linker I:N-II:N via Actinocin(9to1); configuration not given here) | 0.00791 µM | 0.00232 µM | 0.0442 µM | < 0.001 µM | 0.0399 µM and 0.0936 µM | 0.0108 µM | 0.0577 µM | 0.0252 µM | > 100 µM | 0.0252 µM and 0.04 µM | – | – | – | – | – | – | – | – | – | –
O=C(NNC(=S)Nc1ccccc1)c1nsc2ccccc12 | 49 µM | 85.7 µM | – | – | 32.9 µM | > 100 µM | > 100 µM | > 100 µM | > 100 µM | 35.1 µM | > 100 µM | – | – | – | – | – | – | – | – | –
CC1C(NNC(N)=O)Oc2cc3c(cc2C1c1ccccc1O)OCO3 (stereo not given) | 54.5 µM | > 100 µM | 76.7 µM | – | > 100 µM | > 100 µM | > 100 µM | > 100 µM | 78.6 µM | > 100 µM | > 100 µM | – | – | – | – | – | – | – | – | –
CC(C)(C)c1ccc(C(O)CCCN2CCC(C(O)(c3ccccc3)c3ccccc3)CC2)cc1 (stereo not given) | 5.8 µM | – | 42.6 µM | 1.7 µM and 13.5 µM | 3.21 µM and 18.4 µM | 2.23 µM and 20.9 µM | 2.85 µM and 18.2 µM | – | 5.49 µM | – | 2.77 µM | 2 µM | 23.7 µM | 1.4 µM and 13.2 µM | 1.37 µM | 1.94 µM | – | – | – | –
CN1CCN(Cc2c[nH]c3c2C(=O)c2c(c(O)c4ccccc4c2O)C3=O)CC1 | 18.5 µM | 31.6 µM | – | 1.79 µM | 5.12 µM | > 100 µM | 33.1 µM | 25.4 µM | 26.5 µM | 33.2 µM | 26.7 µM | 3.51 µM | – | 15.9 µM | 13.1 µM | 3 µM | 16.5 µM | 26.3 µM | 10.7 µM | 11.2 µM
